Test results reported in patent US4731471A, “(5,6-dichloro-3-oxo-2,3,9,9a-tetrahydrofluoren-7-yl)-alkanoic acids and alkanimidamides bearing novel functional 9a-substituents” (Merck & Co., Inc., priority 1986, dated 1988).

Columns and labels:
[1] = tested on: cerebrocartical tissue slices from cats; test: in vitro cat cerebrocortical tissue slice assay (HCO3^- -stimulated swelling); settings: Felis catus, racemate
From the text: This assay is described in detail in articles by: Cragoe, E. J., Jr.; Gould, N. P.; Woltersdorf, O. W., Jr.; Ziegler, C.: Bourke, R. S.; Nelson, L. R.; Kimelberg, H. K.; Waldman, J. B.; Popp, A. J.; Sedransk, N. J. Med. Chem. 1982, 25, 567, and by Rourke, R. S.: Kimelberg, H. K.; Daze, M.; Church, G. Neurochem. Res. 1983, 8, 5.
Cat pial surface slices (~0.5 mm thick) were cut from the cerebral convexities using a Stadie-Riggs microtome without any moistening. Each slice was then weighed on a torsion balance and immediately placed in a Warburg flask containing 2 mL incubation medium at room temperature (22° C.).
The basic composition of the incubation medium in mmol/l was: KCl, 27; NaCl, 100; glucose, 10; KH2 PO4, 1.2: MgSO4, 1.2; CaCl2, 1.3; HEPES (N-2-hydroxyethylpiperazine-N'-2-ethanesulfonic acid (Sigma)). This solution was titrated with NaOH to pH 7.8, and saturated with oxygen by bubbling the gas through the solution.
To obtain HCO3^- dependent swelling, a solution of NaHCO3 in the above medium was added from the side-arm of the flask to slices which had been incubated in 2 mL of medium without added HCO3 at 37° C. for 20 minutes to achieve a final concentration of 5 mmol. The slices were then incubated for an additional 40 minutes. For control experiments,0.5 mL of the medium without HCO3^- was similarly added from the side-arm. Inhibitors, when used, were present with the slices throughout the 60 minute incubation period. After 60 minutes, the tissue slices were separated from the medium by careful vacuum filtration, re-weighed, and then homogenized (10% w/v suspension) in 1N perchloric acid and then centrifuged. The supernatant was then assayed for electrolytes as previously described.
The tissue content of electrolytes is always expressed as micromoles per gram of the initial wet weight. Percent swelling was calculated as (final wet weight minus initial wet weight/initial wet weight)×100 and HCO3^- dependent swelling would be the increased swelling of slices due to added HCO3^- in media containing 28-29 mmol K^+. Such HCO3^- stimulated swelling is not seen in medium with a normal K^+ concentration (4 to 5 mmol).
The (1) in vitro cat cerebrocortical tissue slice assay, (2) the in vitro primary rat astrocyte culture assay and (3) the in vivo cat head injury assay. The first assay, the in vitro cat cerebrocortical tissue slice assay has been described by Marshall, L. F.; Shapiro, H. M.; Smith, R. W. In "Seminars in Neurological Surgery: Neural Trauma"; Popp, A. J.; Bourke, R. S.; Nelson, L. R.; Kimelberg, H, K,. Eds.; Raven Press: New York, 1979; p. 347, by Bourke, R. S.; Kimelberg, H, K.; Daze, M. A. in Brain Res. 1978, 154, 196, and by Bourke, R. S.; Kimelberg, H. K,; Nelson, L. R. in Brain Res. 1976, 105, 309. This method constitutes a rapid and accurate method of determining the intrinsic chloride inhibitory properties of the compounds of the invention in the target tissue.
Using in vitro cat cerebrocortical tissue slice assay, described in Example 1, compounds of the present invention can be tested for activity. This test provides the principal in vitro evaluation and consists of a determination of concentration vs. response curve. The addition of HCO3^- to isotonic, K^+ -rich saline-glucose incubation media is known to specifically stimulate the transport of Cl^- coupled with Na^+ and an osmotic equivalent of water in incubating slices of mammalian cerebral cortex. […] After addition of drug to the incubation media, detailed drug concentration-response curves are then obtained. The data are expressed as percent HCO3^- -stimulated swelling vs. drug concentration, from which the concentration of drug providing 50% inhibition of HCO3^- -stimulated swelling (I50 in molarity) is interpolated.
Adult cats of 2-3 kg body weight are employed in tissue slice studies. Prior to sacrifice, the animals are anesthetized with ketamine hydrochloride (Ketaset), 10 mg/kg intramuscularly. […]

[2] = tested on: astroglial edema; settings: cited from earlier work
[3] = tested on: experimental head injury; settings: cited from earlier work
[4] = tested on: clinical cases of head injury; settings: cited from earlier work

Row | Compound | inhibition at 0.1 µM ([1]; Conc. 10^-7 M) | inhibition at 0.01 µM ([1]; Conc. 10^-8 M) | inhibition at 0.001 µM ([1]; Conc. 10^-9 M) | inhibition at 0.0001 µM ([1]; Conc. 10^-10 M) | inhibition at 10 pM ([1]; Conc. 10^-11 M) | inhibition at 1 pM ([1]; Conc. 10^-12 M) | activity in in vitro assay [2] | activity in in vivo assay [3] | reducing mortality in clinical cases of head injury [4]
1 | O=C(O)COc1cc2c(c(Cl)c1Cl)C1=CC(=O)CCC1(CCO)C2 (racemic) [Example 2, {[5,6-Dichloro-9a-(2-hydroxyethyl)-3-oxo-2,3,9,9a-tetrahydro-1H-fluoren-7-yl]oxy}acetic acid] | 19% | 92% | 75% | 85% | 53% | 15% |  |  | 
2 | C=C(CC)C(=O)c1ccc(OCC(=O)O)c(Cl)c1Cl [ethacrynic acid] |  |  |  |  |  |  | exhibited activity | exhibited activity | effective in reducing mortality in clinical cases of head injury
